Experimental data reported in the kinase profiling compilation of Christmann-Franck et al. (2016).

Legend:
Assay in all cases: radiometric filter-binding kinase assay, Kinase HotSpot
Conditions in all cases: compound 0.5 µM; ATP 10 µM
SRPK1 (human) = SRPK1 (human) (UniProt Q96SB4)
BLK (human) = BLK (human) (UniProt P51451)
NEK3 (human) = NEK3 (human) (UniProt P51956)
DYRK4 (human) = DYRK4 (human) (UniProt Q9NR20)
BTK (human) = BTK (human) (UniProt Q06187)
AURKC (human) = AURKC (human) (UniProt Q9UQB9)
TAOK3 (human) = TAOK3 (human) (UniProt Q9H2K8)
Chain of TAOK3 (human) (Q9H2K8 whole entry, looked up): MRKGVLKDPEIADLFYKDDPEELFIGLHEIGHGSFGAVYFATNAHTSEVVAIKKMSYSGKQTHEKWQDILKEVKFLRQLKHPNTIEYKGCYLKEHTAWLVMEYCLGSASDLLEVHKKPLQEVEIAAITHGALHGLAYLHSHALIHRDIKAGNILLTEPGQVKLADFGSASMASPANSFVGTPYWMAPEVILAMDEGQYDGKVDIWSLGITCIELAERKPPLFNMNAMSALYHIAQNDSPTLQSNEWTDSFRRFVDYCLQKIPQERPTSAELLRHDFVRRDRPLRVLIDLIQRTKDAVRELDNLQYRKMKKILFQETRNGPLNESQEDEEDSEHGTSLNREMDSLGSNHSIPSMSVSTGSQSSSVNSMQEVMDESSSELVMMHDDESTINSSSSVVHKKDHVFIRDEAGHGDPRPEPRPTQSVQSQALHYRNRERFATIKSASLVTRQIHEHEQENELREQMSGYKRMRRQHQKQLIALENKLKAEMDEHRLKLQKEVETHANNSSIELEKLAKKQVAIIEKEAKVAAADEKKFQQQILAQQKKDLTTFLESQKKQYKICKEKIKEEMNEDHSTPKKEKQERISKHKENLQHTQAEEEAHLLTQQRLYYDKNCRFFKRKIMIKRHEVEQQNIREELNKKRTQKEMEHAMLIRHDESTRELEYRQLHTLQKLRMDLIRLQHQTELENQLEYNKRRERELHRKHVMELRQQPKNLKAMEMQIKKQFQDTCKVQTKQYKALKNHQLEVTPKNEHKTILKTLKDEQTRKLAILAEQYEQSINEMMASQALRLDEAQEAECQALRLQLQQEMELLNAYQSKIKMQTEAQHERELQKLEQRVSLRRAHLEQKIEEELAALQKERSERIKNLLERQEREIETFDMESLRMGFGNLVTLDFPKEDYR

FLT1 (human) = FLT1 (human) (UniProt P17948)
GRK5 (human) = GRK5 (human) (UniProt P34947)
Chain of GRK5 (human) (P34947 whole entry, looked up): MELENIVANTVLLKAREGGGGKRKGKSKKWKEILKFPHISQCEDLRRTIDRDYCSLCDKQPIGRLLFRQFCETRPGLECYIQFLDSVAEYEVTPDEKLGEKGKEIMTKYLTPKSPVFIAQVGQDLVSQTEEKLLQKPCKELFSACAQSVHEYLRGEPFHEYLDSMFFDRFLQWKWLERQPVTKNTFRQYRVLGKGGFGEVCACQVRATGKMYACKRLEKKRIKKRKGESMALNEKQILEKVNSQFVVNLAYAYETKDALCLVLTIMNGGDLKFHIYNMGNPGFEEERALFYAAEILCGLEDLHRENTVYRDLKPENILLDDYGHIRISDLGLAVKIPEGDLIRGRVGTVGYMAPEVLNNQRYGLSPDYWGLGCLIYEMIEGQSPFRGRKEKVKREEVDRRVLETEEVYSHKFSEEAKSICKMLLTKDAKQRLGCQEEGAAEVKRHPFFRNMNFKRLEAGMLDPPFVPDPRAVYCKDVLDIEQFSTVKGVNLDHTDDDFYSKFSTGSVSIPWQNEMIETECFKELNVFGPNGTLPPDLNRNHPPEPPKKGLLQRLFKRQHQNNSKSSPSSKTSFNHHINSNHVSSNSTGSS

PLK2 (human) = PLK2 (human) (UniProt Q9NYY3)
CSNK1G2 (human) = CSNK1G2 (human) (UniProt P78368)
IGF1R (human) = IGF1R (human) (UniProt P08069)
CDK7 CCNH MNAT1 (human) = CDK7 CCNH MNAT1 (human) (UniProt P50613+P51948+P51946)
INSRR (human) = INSRR (human) (UniProt P14616)
MAPK8 (human) = MAPK8 (human) (UniProt P45983)
RAF1 (human) = RAF1 (human) (UniProt P04049)
MST4 (human) = MST4 (human) (UniProt Q9P289)
KDR (human) = KDR (human) (UniProt P35968)
DMPK (human) = DMPK (human) (UniProt Q09013)
Chain of DMPK (human) (Q09013 whole entry, looked up): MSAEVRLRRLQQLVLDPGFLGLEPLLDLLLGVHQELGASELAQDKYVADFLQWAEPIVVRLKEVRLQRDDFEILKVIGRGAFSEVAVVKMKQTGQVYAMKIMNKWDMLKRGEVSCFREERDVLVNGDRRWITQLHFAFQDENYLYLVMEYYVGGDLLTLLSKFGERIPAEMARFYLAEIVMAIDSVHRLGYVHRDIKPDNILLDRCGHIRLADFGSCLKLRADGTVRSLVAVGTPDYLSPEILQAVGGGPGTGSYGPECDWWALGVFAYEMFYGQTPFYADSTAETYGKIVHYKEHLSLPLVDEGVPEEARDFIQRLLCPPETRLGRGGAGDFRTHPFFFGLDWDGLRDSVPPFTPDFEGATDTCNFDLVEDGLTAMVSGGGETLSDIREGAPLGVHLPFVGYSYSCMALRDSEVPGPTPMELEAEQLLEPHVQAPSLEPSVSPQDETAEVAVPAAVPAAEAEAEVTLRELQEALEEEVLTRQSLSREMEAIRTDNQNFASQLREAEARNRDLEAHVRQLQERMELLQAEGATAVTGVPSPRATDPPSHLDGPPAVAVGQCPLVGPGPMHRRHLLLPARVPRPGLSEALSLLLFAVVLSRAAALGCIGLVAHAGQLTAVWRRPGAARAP

CDK1 CCNB1 (human) = CDK1 CCNB1 (human) (UniProt P06493+P14635)
BMX (human) = BMX (human) (UniProt P51813)
LTK (human) = LTK (human) (UniProt P29376)
NEK4 (human) = NEK4 (human) (UniProt P51957)
EPHA1 (human) = EPHA1 (human) (UniProt P21709)
CSNK1G3 (human) = CSNK1G3 (human) (UniProt Q9Y6M4)
CDK3 CCNE1 (human) = CDK3 CCNE1 (human) (UniProt Q00526+P24864)
FES (human) = FES (human) (UniProt P07332)
GRK6 (human) = GRK6 (human) (UniProt P43250)
DYRK1A (human) = DYRK1A (human) (UniProt Q13627)
ABL1 (human) = ABL1 (human) (UniProt P00519)
Chain of ABL1 (human) (P00519 whole entry, looked up): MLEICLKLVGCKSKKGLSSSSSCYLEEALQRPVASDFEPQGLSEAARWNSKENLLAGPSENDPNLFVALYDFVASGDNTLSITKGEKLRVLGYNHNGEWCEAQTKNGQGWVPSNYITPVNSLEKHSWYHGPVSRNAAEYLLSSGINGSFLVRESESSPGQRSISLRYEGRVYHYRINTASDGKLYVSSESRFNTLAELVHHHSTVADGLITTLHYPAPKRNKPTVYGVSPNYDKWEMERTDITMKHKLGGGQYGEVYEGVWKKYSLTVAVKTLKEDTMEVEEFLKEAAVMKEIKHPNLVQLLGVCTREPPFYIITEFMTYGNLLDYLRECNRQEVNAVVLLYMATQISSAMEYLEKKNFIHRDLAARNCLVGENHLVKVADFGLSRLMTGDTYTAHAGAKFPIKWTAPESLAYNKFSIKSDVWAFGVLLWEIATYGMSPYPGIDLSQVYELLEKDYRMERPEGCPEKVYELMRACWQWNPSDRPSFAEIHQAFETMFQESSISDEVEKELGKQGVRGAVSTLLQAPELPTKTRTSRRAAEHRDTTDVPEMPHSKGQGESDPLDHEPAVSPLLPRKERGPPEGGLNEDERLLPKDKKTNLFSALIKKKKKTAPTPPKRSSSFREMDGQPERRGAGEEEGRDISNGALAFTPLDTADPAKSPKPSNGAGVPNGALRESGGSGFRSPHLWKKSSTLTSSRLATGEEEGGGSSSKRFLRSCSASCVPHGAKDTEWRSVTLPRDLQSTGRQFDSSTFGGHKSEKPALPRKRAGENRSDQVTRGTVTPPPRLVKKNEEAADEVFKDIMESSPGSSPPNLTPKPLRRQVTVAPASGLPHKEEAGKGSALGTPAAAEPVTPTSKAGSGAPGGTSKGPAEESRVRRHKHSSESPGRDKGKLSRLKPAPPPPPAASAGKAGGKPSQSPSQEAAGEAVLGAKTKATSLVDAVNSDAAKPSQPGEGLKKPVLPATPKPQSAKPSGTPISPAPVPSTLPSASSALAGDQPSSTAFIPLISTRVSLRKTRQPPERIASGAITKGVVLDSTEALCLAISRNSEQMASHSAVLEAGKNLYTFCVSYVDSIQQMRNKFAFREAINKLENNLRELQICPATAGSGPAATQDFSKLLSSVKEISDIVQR

PRKCI (human) = PRKCI (human) (UniProt P41743)
Chain of PRKCI (human) (P41743 whole entry, looked up): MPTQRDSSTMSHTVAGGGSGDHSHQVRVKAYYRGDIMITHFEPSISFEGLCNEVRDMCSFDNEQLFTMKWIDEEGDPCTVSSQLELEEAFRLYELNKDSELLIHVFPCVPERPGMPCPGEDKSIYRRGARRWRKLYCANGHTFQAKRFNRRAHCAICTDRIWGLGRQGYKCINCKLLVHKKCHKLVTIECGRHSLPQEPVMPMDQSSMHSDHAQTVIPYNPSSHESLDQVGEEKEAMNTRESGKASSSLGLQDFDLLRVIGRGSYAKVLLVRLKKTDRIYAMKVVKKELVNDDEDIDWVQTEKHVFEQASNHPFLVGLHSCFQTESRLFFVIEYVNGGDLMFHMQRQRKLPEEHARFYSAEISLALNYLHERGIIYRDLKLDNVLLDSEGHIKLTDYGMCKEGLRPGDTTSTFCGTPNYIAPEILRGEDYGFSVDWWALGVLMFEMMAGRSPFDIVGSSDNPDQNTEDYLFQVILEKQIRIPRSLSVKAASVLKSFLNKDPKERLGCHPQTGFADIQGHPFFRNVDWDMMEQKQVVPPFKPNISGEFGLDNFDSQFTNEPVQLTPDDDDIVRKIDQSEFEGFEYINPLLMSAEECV

ROS1 (human) = ROS1 (human) (UniProt P08922)
STK10 (human) = STK10 (human) (UniProt O94804)
MAP3K9 (human) = MAP3K9 (human) (UniProt P80192)
LRRK2 (human) = LRRK2 (human) (UniProt Q5S007)
PAK6 (human) = PAK6 (human) (UniProt Q9NQU5)
RIPK2 (human) = RIPK2 (human) (UniProt O43353)
Chain of RIPK2 (human) (O43353 whole entry, looked up): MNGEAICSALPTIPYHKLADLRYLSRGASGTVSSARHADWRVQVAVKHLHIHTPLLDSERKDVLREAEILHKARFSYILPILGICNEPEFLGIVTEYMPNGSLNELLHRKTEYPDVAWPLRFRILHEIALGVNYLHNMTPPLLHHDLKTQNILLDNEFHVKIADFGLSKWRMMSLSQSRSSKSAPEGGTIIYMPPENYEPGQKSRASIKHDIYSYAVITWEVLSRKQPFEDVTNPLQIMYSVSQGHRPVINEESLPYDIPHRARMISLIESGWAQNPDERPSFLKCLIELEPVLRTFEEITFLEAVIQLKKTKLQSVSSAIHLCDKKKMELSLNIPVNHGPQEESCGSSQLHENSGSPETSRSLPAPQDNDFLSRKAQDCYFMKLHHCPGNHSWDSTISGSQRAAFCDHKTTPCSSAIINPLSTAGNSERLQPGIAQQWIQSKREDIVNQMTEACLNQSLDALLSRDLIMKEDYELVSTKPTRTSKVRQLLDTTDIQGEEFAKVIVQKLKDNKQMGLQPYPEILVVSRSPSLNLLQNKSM

RPS6KB1 (human) = RPS6KB1 (human) (UniProt P23443)
TSSK1B (human) = TSSK1B (human) (UniProt Q9BXA7)
Chain of TSSK1B (human) (Q9BXA7 whole entry, looked up): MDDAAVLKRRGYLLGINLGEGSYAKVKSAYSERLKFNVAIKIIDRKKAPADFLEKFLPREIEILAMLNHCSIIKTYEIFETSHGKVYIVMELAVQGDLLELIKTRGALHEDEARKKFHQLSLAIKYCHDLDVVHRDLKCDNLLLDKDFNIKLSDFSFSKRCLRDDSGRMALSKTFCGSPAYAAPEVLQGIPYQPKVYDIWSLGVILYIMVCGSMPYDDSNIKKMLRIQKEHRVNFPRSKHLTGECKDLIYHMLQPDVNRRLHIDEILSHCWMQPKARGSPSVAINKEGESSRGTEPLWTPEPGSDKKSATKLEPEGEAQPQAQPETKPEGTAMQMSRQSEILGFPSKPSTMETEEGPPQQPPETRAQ

PIM2 (human) = PIM2 (human) (UniProt Q9P1W9)
MAP3K5 (human) = MAP3K5 (human) (UniProt Q99683)
MAP4K4 (human) = MAP4K4 (human) (UniProt O95819)

Which results are given for `c1ccc(-c2n[nH]c3c2oc2ccccc23)cc1`?
residual activity (SRPK1 (human)): 113%; residual activity (BLK (human)): 88.9%; residual activity (NEK3 (human)): 98.9%; residual activity (DYRK4 (human)): 99.7%; residual activity (BTK (human)): 96.4%; residual activity (AURKC (human)): 96.7%; residual activity (TAOK3 (human)): 94.8%; residual activity (FLT1 (human)): 94.5%; residual activity (GRK5 (human)): 123%; residual activity (PLK2 (human)): 102%; residual activity (CSNK1G2 (human)): 86.4%; residual activity (IGF1R (human)): 98.1%; residual activity (CDK7 CCNH MNAT1 (human)): 101%; residual activity (INSRR (human)): 104%; residual activity (MAPK8 (human)): 79.6%; residual activity (RAF1 (human)): 94.9%; residual activity (MST4 (human)): 90.6%; residual activity (KDR (human)): 107%; residual activity (DMPK (human)): 99.5%; residual activity (CDK1 CCNB1 (human)): 87.7%; residual activity (BMX (human)): 106%; residual activity (LTK (human)): 94.8%; residual activity (NEK4 (human)): 92.9%; residual activity (EPHA1 (human)): 78.6%; residual activity (CSNK1G3 (human)): 88.5%; residual activity (CDK3 CCNE1 (human)): 90%; residual activity (FES (human)): 114%; residual activity (GRK6 (human)): 102%; residual activity (DYRK1A (human)): 114%; residual activity (ABL1 (human)): 99.6%; residual activity (PRKCI (human)): 85.9%; residual activity (ROS1 (human)): 107%; residual activity (STK10 (human)): 108%; residual activity (MAP3K9 (human)): 97.5%; residual activity (LRRK2 (human)): 91.4%; residual activity (PAK6 (human)): 87.5%; residual activity (RIPK2 (human)): 78.8%; residual activity (RPS6KB1 (human)): 99.9%; residual activity (TSSK1B (human)): 97.2%; residual activity (PIM2 (human)): 104%; residual activity (MAP3K5 (human)): 97.4%; residual activity (MAP4K4 (human)): 36.1%

Which results are given for `CCOC(=O)c1c(C)[nH]c(/C=C2\C(=O)Nc3ccccc32)c1C`?
residual activity (SRPK1 (human)): 95.4%; residual activity (BLK (human)): 80.2%; residual activity (NEK3 (human)): 101%; residual activity (DYRK4 (human)): 99.6%; residual activity (BTK (human)): 95.6%; residual activity (AURKC (human)): 89.1%; residual activity (TAOK3 (human)): 87.6%; residual activity (FLT1 (human)): 79%; residual activity (GRK5 (human)): 102%; residual activity (PLK2 (human)): 102%; residual activity (CSNK1G2 (human)): 84.8%; residual activity (IGF1R (human)): 79.5%; residual activity (CDK7 CCNH MNAT1 (human)): 96.8%; residual activity (INSRR (human)): 93.8%; residual activity (MAPK8 (human)): 106%; residual activity (RAF1 (human)): 89.6%; residual activity (MST4 (human)): 101%; residual activity (KDR (human)): 93.2%; residual activity (DMPK (human)): 101%; residual activity (CDK1 CCNB1 (human)): 100%; residual activity (BMX (human)): 93.5%; residual activity (LTK (human)): 66.9%; residual activity (NEK4 (human)): 95.1%; residual activity (EPHA1 (human)): 90.8%; residual activity (CSNK1G3 (human)): 97.9%; residual activity (CDK3 CCNE1 (human)): 94%; residual activity (FES (human)): 99.3%; residual activity (GRK6 (human)): 90.8%; residual activity (DYRK1A (human)): 95.7%; residual activity (ABL1 (human)): 95.4%; residual activity (PRKCI (human)): 92.9%; residual activity (ROS1 (human)): 99.1%; residual activity (STK10 (human)): 82.2%; residual activity (MAP3K9 (human)): 61.6%; residual activity (LRRK2 (human)): 28.6%; residual activity (PAK6 (human)): 81.4%; residual activity (RIPK2 (human)): 88.3%; residual activity (RPS6KB1 (human)): 85.7%; residual activity (TSSK1B (human)): 91.2%; residual activity (PIM2 (human)): 97.7%; residual activity (MAP4K4 (human)): 64.5%
